Earlier results, collected in patent publication US6680306B2, “Method for enhancing the effectiveness of cancer therapies” (GlycoGenesys, Inc., priority 2001, dated 2004).

Assays:
[1] = test system: BT549 cells; conditions: BT549 human breast epithelial cell line that does not express detectable levels of galectin-3
[2] = test system: galectin-3 transfected BT549 cells; conditions: galectin-3 transfected BT549 cells treated with genistein

Compound: O=c1c(-c2ccc(O)cc2)coc2cc(O)cc(O)c12 [genistein]
- apoptosis induction [1]: effectively induces apoptosis, without detectable cell cycle arrest
- cell cycle arrest / apoptosis induction [2]: cell cycle arrest at the G(2)/M phase takes place without apoptosis induction
